Assays:
Cbl-b (aa36-427) = molecular target: T1, Cbl-b (aa36-427) (Homo sapiens, UniProt Q13191); assay: Co-expressed Cbl-b with BirA biochemical assay (CBLB/E2-Ub binding, HTRF); conditions: 0.6 nM Cbl-b co-expressed with BirA, HTRF; read-out: co-express CBLB/E2-Ub-binding assay IC50
T1 construct: Cbl-b (aa36-427, in-house); made in house
Excerpt: (§1) The assay in the absence of a Cbl-b/Cbl inhibitor, where phosphorylation of Cbl-b/Cbl by the Src kinase allows UbcH5B-Ub to bind to Cbl-b/Cbl and brings the Bodipy-Fluorescein tagged ubiquitin in proximity to the streptavidin-terbium bound to the N-terminal biotinylated Avi-tagged Cbl-b/Cbl. […] The lack of a FRET signal indicates Cbl-b/Cbl is inhibited by the Cbl-b/Cbl inhibitor.

Cbl (aa49-434) = molecular target: T2, Cbl (aa49-434) (Homo sapiens, UniProt P22681); assay: Co-expressed Cbl with BirA biochemical assay (CBL/E2-Ub binding, HTRF); conditions: 0.6 nM Cbl co-expressed with BirA, read-out: co-express CBL/E2-Ub-binding assay IC50
T2 construct: Cbl (aa49-434, in-house); made in house
T2 sequence (P22681 49-434): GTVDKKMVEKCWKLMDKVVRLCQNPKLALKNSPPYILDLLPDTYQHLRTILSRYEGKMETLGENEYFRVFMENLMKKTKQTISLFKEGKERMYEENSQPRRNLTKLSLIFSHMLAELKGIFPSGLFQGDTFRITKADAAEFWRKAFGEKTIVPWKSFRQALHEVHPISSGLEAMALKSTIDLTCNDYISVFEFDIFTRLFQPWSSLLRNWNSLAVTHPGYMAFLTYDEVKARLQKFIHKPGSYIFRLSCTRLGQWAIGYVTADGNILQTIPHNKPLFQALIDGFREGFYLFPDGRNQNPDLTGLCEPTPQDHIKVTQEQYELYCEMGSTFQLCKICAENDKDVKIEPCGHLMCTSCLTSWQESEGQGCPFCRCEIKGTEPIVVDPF
Excerpt: as §1

T1 sequence (Q13191 36-427): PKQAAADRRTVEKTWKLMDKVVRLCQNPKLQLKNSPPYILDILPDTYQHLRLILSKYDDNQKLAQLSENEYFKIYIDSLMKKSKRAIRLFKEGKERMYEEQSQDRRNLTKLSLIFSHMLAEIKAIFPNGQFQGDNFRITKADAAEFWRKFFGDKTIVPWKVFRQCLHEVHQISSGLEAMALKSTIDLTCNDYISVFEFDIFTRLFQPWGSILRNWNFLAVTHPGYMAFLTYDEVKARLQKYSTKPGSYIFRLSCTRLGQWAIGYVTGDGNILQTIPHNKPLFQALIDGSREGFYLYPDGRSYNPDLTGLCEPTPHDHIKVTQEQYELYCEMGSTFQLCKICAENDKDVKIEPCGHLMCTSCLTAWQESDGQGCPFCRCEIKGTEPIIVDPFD

IC50 (Cbl-b (aa36-427)) [nM] | IC50 (Cbl (aa49-434)) [nM] | Structure (SMILES)
1.2 | 2.8 | Cn1cnnc1[C@]1(c2cncc(NC(=O)c3cc(CNC4(C)CC4)cn4c(Cl)cnc34)c2)C[C@H](C)C1 [Compound A73, 3-chloro-N-(5-((1s, 3s)-3-methyl-1-(4-methyl-4H-1,2,4-triazol-3-yl)cyclobutyl)pyridin-3-yl)-6-(((1-methylcyclopropyl)amino)methyl)imidazo[1,2-a]pyridine-8-carboxamide]
0.7 | 2.7 | Cn1cnnc1[C@]1(c2cncc(NC(=O)c3cc(CNCC4CCC4)c4[nH]cc(F)c4n3)c2)C[C@H](C)C1 [Compound B46, 7-{[(cyclobutylmethyl)amino]methyl}-3-fluoro-N-{5-[(1r, 3s)-3-methyl-1-(4-methyl-1,2,4-triazol-3-yl)cyclobutyl]pyridin-3-yl}-1H-pyrrolo[3,2-b]pyridine-5-carboxamide]
1 | 1.5 | Cn1cnnc1[C@]1(c2cccc(NC(=O)c3cc(CNCC4CCC4)c4[nH]ccc4n3)c2)C[C@H](C)C1 [Compound B32, 7-(((cyclobutylmethyl)amino)methyl)-N-(3-((1s, 3s)-3-methyl-1-(4-methyl-4H-1,2,4-triazol-3-yl)cyclobutyl)phenyl)-1H-pyrrolo[3,2-b]pyridine-5-carboxamide]
0.7 | 0.8 | C[C@@H]1CN(Cc2cc(C(=O)Nc3cccc([C@]4(c5nncn5C)C[C@@H](C)C4)c3)nc3c2NCC32CC2)CC[C@@H]1F [Compound C50, 7′-(((3R,4S)-4-fluoro-3-methylpiperidin-1-yl)methyl)-N-(3-((1s,3S)-3-methyl-1-(4-methyl-4H-1,2,4-triazol-3-yl)cyclobutyl)phenyl)-1′,2′-dihydrospiro[cyclopropane-1,3′-pyrrolo[3,2-b]pyridine]-5′-carboxamide]
0.5 | 2.6 | Cn1cnnc1[C@]1(c2cccc(NC(=O)c3cc(CNCC4CCC4)c4c(n3)C(F)(F)CC4)c2)C[C@H](C)C1 [Compound C56, 4-(((cyclobutylmethyl)amino)methyl)-7,7-difluoro-N-(3-((1s, 3s)-3-methyl-1-(4-methyl-4H-1,2,4-triazol-3-yl)cyclobutyl)phenyl)-6,7-dihydro-5H-cyclopenta[b]pyridine-2-carboxamide]
1.4 | 3.1 | C[C@H]1CCCN(Cc2cc(C(=O)Nc3cccc([C@]4(Cc5nncn5C)C[C@H](C#N)C4)c3)nc3c2CCC3(C)C)C1 [Compound C18, N-(3-((1s,3R)-3-cyano-1-((4-methyl-4H-1,2,4-triazol-3-yl)methyl)cyclobutyl)phenyl)-7,7-dimethyl-4-(((S)-3-methylpiperidin-1-yl)methyl)-6,7-dihydro-5H-cyclopenta[b]pyridine-2-carboxamide]
2.7 | 6 | C[C@H]1CCCN(Cc2cc(C(=O)Nc3cccc([C@]4(c5nncn5C)C[C@@H](CC#N)C4)c3)nc3c2NCC32CC2)C1 [Compound C19, N-(3-((1s,3R)-3-(cyanomethyl)-1-(4-methyl-4H-1,2,4-triazol-3yl)cyclobutyl)phenyl)-7′-(((S)-3-methylpiperidin-1-yl)methyl)-1′,2′-dihydrospiro[cyclopropane-1,3′-pyrrolo[3,2-b]pyridine]-5′-carboxamide]
0.8 | 4.5 | C[C@H](NCc1cc(C(=O)Nc2cccc([C@]3(c4nncn4C)C[C@@H](C)C3)c2)nc2c(F)c[nH]c12)C1CC1 [Compound B37, 7-((((S)-1-cyclopropylethyl)amino)methyl)-3-fluoro-N-(3-((1s,3R)-3-methyl-1-(4-methyl-4H-1,2,4-triazol-3-yl)cyclobutyl)phenyl)-1H-pyrrolo[3,2-b]pyridine-5-carboxamide]
2.7 | 14.1 | Cn1cnnc1[C@]1(c2cccc(NC(=O)c3cc(CNC4(C)CCC4)cn4ccnc34)c2)C[C@H](C)C1 [Compound A39, N-(3-((1s, 3s)-3-methyl-1-(4-methyl-4H-1,2,4-triazol-3-yl)cyclobutyl)phenyl)-6-(((1-methylcyclobutyl)amino)methyl)imidazo[1,2-a]pyridine-8-carboxamide]
1.7 | 45 | Cn1cnnc1[C@]1(c2cccc(NC(=O)c3cc(CNC4(C)CC4)cn4ncnc34)c2)C[C@H](CC#N)C1 [Compound A89, N-(3-((1s, 3s)-3-(cyanomethyl)-1-(4-methyl-4H-1,2,4-triazol-3-yl)cyclobutyl)phenyl)-6-(((1-methylcyclopropyl)amino)methyl)-[1,2,4]triazolo[1,5-a]pyridine-8-carboxamide]
4.4 | 14.4 | C[C@H]1CCCN(Cc2cc(C(=O)Nc3cccc(C4(Cc5nncn5C)COC4)c3)c3nc(F)cn3c2)C1 [Compound A7, (S)-2-fluoro-N-(3-(3-((4-methyl-4H-1,2,4-triazol-3-yl)methyl)oxetan-3-yl)phenyl)-6-((3-methylpiperidin-1-yl)methyl)imidazo[1,2-a]pyridine-8-carboxamide]
6.1 | 47 | C[C@H]1CCCN(Cc2cc(C(=O)Nc3cccc([C@]4(c5nncn5C)C[C@@H](CC#N)C4)c3)c3nc(F)cn3c2)C1 [Compound A13, N-(3-((1s,3R)-3-(cyanomethyl)-1-(4-methyl-4H-1,2,4-triazol-3-yl)cyclobutyl)phenyl)-2-fluoro-6-(((S)-3-methylpiperidin-1-yl)methyl)imidazo[1,2-a]pyridine-8-carboxamide]
1 | 2.1 | Cn1cnnc1[C@]1(c2cncc(NC(=O)c3cc(CNCC4CCC4)c4[nH]ccc4n3)c2)C[C@H](C)C1 [Compound B40, 7-{[(cyclobutylmethyl)amino]methyl}-N-{5-[(1r, 3s)-3-methyl-1-(4-methyl-1,2,4-triazol-3-yl)cyclobutyl]pyridin-3-yl}-1H-pyrrolo[3,2-b]pyridine-5-carboxamide]
0.73 | 1.4 | CC(C)CNCc1cc(C(=O)Nc2cncc([C@]3(c4nncn4C)C[C@@H](C)C3)c2)c2ncc(F)n2c1 [Compound A79, 3-fluoro-6-((isobutylamino)methyl)-N-(5-((1s, 3s)-3-methyl-1-(4-methyl-4H-1,2,4-triazol-3-yl)cyclobutyl)pyridin-3-yl)imidazo[1,2-a]pyridine-8-carboxamide]
0.8 | 2.2 | C[C@H](NCc1cc(C(=O)Nc2cccc([C@]3(c4nncn4C)C[C@@H](CC#N)C3)c2)nc2cc[nH]c12)C1CC1 [Compound B28, N-(3-((1s,3R)-3-(cyanomethyl)-1-(4-methyl-4H-1,2,4-triazol-3-yl)cyclobutyl)phenyl)-7-((((S)-1-cyclopropylethyl)amino)methyl)-1H-pyrrolo[3,2-b]pyridine-5-carboxamide]
0.6 | 6.4 | Cn1cnnc1[C@]1(c2cccc(NC(=O)c3cc(CNCC4(C)CCC4)cn4ccnc34)c2)C[C@H](CC#N)C1 [Compound A30, N-(3-((1s, 3s)-3-(cyanomethyl)-1-(4-methyl-4H-1,2,4-triazol-3-yl)cyclobutyl)phenyl)-6-((((1-methylcyclobutyl)methyl)amino)methyl)imidazo[1,2-a]pyridine-8-carboxamide]
0.7 | 3.4 | [2H]C([2H])([2H])n1cnnc1[C@]1(c2cccc(NC(=O)c3cc(CNC4(C)CC4)cn4ccnc34)c2)C[C@H](C)C1 [Compound A95, N-(3-((1s, 3s)-3-methyl-1-(4-(methyl-d3)-4H-1,2,4-triazol-3-yl)cyclobutyl)phenyl)-6-(((1-methylcyclopropyl)amino)methyl)imidazo[1,2-a]pyridine-8-carboxamide]
4.4 | 20 | Cn1cnnc1[C@]1(c2cncc(NC(=O)c3cc(CNC4(C)CC4)cn4ncnc34)c2)C[C@H](C)C1 [Compound A88, N-(5-((1s, 3s)-3-methyl-1-(4-methyl-4H-1,2,4-triazol-3-yl)cyclobutyl)pyridin-3-yl)-6-(((1-methylcyclopropyl)amino)methyl)-[1,2,4]triazolo[1,5-a]pyridine-8-carboxamide]
5 | 19 | Cn1cnnc1[C@]1(c2cncc(NC(=O)c3cc(CNC4(C)CCC4)c4[nH]cc(Cl)c4n3)c2)C[C@H](C)C1 [Compound B52, 3-chloro-N-(5-((1s, 3s)-3-methyl-1-(4-methyl-4H-1,2,4-triazol-3-yl)cyclobutyl)pyridin-3-yl)-7-(((1-methylcyclobutyl)amino)methyl)-1H-pyrrolo[3,2-b]pyridine-5-carboxamide]
1.6 | 5.2 | Cn1cnnc1[C@]1(c2cncc(NC(=O)c3cc(CNC4(C)CC4)cc4c(F)cnn34)c2)C[C@H](C)C1 [Compound A93, 3-fluoro-N-(5-((1s, 3s)-3-methyl-1-(4-methyl-4H-1,2,4-triazol-3-yl)cyclobutyl)pyridin-3-yl)-5-(((1-methylcyclopropyl)amino)methyl)pyrazolo[1,5-a]pyridine-7-carboxamide]
